Results from patent US7541366B2, “Pyrrolo[3,2-c]pyridine derivatives and processes for the preparation thereof” (YUHAN Corporation, priority 2004, dated 2009).

Tests used:
[1] = biological target: T1, proton pump (H+/K+-ATPase) (Sus scrofa, UniProt P19156); test: Inhibitory effects on proton pump (H+/K+-ATPase) activity; type: biochemical; conditions: hog gastric vesicles, K+ stimulated H+/K+-ATPase activity, Pi at 620 nm, 30 minutes at 37° C.
T1 construct: used as an enzyme source of the in vitro enzyme reaction assay of proton pump; from tissue; host or cells: hog gastric fundic mucosa; membrane vesicles, lyophilized
T1 sequence (P19156 whole entry): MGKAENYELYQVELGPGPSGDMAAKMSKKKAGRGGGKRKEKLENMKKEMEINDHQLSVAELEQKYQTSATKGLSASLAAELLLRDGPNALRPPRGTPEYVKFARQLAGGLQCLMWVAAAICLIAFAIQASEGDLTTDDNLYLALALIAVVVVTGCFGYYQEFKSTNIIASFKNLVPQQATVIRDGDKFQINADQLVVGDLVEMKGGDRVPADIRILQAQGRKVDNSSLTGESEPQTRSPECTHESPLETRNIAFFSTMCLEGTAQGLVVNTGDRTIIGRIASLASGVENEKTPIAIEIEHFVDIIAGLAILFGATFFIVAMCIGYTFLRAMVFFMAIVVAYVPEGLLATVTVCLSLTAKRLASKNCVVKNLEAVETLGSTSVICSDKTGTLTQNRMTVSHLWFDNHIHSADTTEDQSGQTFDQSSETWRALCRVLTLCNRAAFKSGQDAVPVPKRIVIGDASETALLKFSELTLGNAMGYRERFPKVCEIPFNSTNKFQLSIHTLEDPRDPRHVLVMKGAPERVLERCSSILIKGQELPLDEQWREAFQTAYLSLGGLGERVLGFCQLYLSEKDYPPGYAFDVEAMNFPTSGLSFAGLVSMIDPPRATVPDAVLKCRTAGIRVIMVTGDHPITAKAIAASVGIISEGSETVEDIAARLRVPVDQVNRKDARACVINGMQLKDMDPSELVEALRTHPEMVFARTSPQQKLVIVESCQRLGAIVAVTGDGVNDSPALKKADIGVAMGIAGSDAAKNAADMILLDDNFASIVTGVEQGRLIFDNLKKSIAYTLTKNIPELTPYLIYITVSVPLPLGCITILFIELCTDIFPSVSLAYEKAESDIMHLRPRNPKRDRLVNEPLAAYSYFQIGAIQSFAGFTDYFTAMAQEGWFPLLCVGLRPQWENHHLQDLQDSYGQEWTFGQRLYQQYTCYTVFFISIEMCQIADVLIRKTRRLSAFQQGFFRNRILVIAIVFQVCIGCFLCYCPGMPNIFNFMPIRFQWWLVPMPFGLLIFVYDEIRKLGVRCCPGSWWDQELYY
T1 sequence (P18434 whole entry partner): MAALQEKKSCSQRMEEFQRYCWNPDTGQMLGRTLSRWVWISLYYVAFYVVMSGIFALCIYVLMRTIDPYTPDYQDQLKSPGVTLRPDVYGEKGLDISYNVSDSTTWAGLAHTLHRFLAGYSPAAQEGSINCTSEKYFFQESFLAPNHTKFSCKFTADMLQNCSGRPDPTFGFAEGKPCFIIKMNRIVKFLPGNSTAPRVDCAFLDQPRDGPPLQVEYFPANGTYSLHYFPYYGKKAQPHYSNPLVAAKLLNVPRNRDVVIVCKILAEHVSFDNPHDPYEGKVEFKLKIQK
Procedure: 1-1. Preparation of gastric proton pump vesicles
The hog fundic regions containing parietal and peptic cells were scraped with slide-glass. The collected cells were suspended in 10 ml of 0.25M sucrose buffer and homogenized using a tight-fitting Teflon-glass homogenizer. The homogenate was centrifuged for 35 min at 8,000 rpm and the pellet was discarded. The supernatant was further centrifuged for 75 min at 25,000 rpm. The resulting pellets were re-suspended in the sucrose buffer (10 ml), and then the suspension was laid onto discontinuous density gradients consisting of 0.25M sucrose buffer and isolation medium containing 9% Ficoll (w/w). After being centrifuged for 3 hours and 15 minutes at 100,000×g, the material at the interface of sucrose buffer and Ficoll solution was collected and then centrifuged for 40 minutes at 100,000×g. The resulting pellets were re-suspended in 1 ml of 5 mM Hepes/Tris buffer (pH 6.1). This material was lyophilized and stored at −70° C. and used as an enzyme source of the in vitro enzyme reaction assay of proton pump.
1-2. Measurement of inhibitory effects on proton pump (H^+/K^+-ATPase) activity
The inhibitory effects of the compounds of the present invention against proton pump activity were evaluated in 96-well plate. In this assay, the K^+specific H^+/K^+-ATPase activity was calculated based on the difference between the activity of H^+/K^30 -ATPase activity with K^30 and without K^30 ion. In 96-well plate, 1% dimethylsulfoxide (DMSO) in buffer was added to negative and positive control groups and the diluted compounds of the present invention in buffer were added to test group. All assays were performed in 100μl reaction volume at room temperature, and the hog gastric vesicle was kept in ice before use. At the beginning of the reaction, 10μl of reaction buffer containing 1% DMSO was added to the negative and positive control groups and to reaction buffer each concentration of compounds in the test group. Then lyophilized vesicle in 5mM Pipes/Tris buffer (pH 6.1) was pre-incubated in the presence of various concentrations of test compounds. After a 5 minute incubation, negative and positive buffers were respectively added to the previous reaction mixture. As the substrate, ATP was added to the reaction buffer, and incubated for 30 minutes at 37° C. Enzymatic activity was stopped by the addition of colorimetric reagent (2X malachite green, 1X ammonium molybdate, X polyvinyl alcohol, 2X H2O) and the amount of mono phosphate (Pi) in the reaction was measured at 620nm using the micro plate reader (Genios Pro, TECAN). The difference between the Pi production with K^+and without K^+is taken as K^+stimulated H^+/K^+-ATPase activity. The IC50s of test compounds were calculated from each % inhibition value of compounds using the method of Litchfield-Wilcoxon (J. Pharmacol. Exp. Ther. (1949) 96, 99).

[2] = system: basal gastric acid secretion; test: Inhibitory effects on basal gastric acid secretion in pylorus-ligated rats (Shay's rat model); type: in vivo, Sprague Dawley (SD) rats; conditions: oral, one hour before pylorus ligation, total acid output 5 hours after ligation, male SD rats
Procedure: Test Example 2. Inhibitory effects on basal gastric acid secretion in pylorus-ligated rats. Inhibitory effects of the compounds of the present invention on basal gastric acid secretion were performed according to Shay's rat model (Shay, H., et al., 1945, gastroenterology, 5, 43-61). Male Sprague Dawley (SD) rats (200±10 g body weight) were divided into 3 groups (n=5) and fasted for 24 hours with free access to water. Control group was orally administered with 0.5% methylcellulose alone and the other groups were orally administered with test compounds suspended in 0.5% methyl-cellulose solution at doses of 1, 3 and 10 mg/kg/5 ml one hour before pylorus ligation. Under ether anesthesia, the abdomens of the rats were incised and then the pylorus was ligated. 5 hours after ligation, the animals were sacrificed, and the gastric contents were collected. The collected contents were centrifuged at 1,000×g for 10 minutes to obtain the gastric juice. Total acid output was measured by 0.01N NaOH volume (ueq/ml) for automatic titration of the gastric juice to pH 7.0 and the ED50s of test compounds were calculated using the Litchfield-Wilcoxon method. % inhibitory activity was calculated from the following equation and the results are shown in Table 2. %inhibitory activity of test compound=(total acid output of control group−total acid output of the group treated with test compounds)/total acid output of control group X 100

hog gastric H+/K+-ATPase = biological target: T2, hog gastric H+/K+-ATPase (Sus scrofa, UniProt P19156); test: Reversible inhibition of hog gastric H+/K+-ATPase (Washout method); type: biochemical
T2 construct: from tissue; host or cells: hog gastric fundic mucosa; gastric vesicles/microsomes, lyophilized
T2 sequence (P19156 whole entry): as the sequence (P19156 whole entry) above
T2 sequence (P18434 whole entry partner): as the sequence (P18434 whole entry partner) above
Procedure: Gastric vesicles were prepared from hog fundic mucosa using the method of Saccomani et al. (Saccomani G, Stewart H B, Shqw D, Lewin M and Sachs G, Characterization of gastric mucosal membranes. IX. Fraction and purification of K-ATPase-containing vesicles by zonal centrifugation and free-flow electrophoresis techinque. Biochem. Biophy. Acta.(BBA)—Biomembranes 465, 311-330, 1977.). This material was lyophilized and stored at −70° C. The protein content of gastric vesicles was determined by the Bradford method using bovine serum albumin as a standard (Bradford M M, A rapid and sensitive method for the quantitation of microgram quantities of protein utilizing the principle of protein-dye binding. Anal Biochem. 72, 248-254, 1976).
Activity of H^+/K^+-ATPase in hog microsome (lyophilized vesicle) was measured by the inorganic phosphate released from ATP using an one-step colorimetric detection method at the concentration at which the test compounds have 50% inhibition of the proton pump (Chan K M, Delfert D, and Junger K D, A direct colorimetric assay for Ca^2+-stimulated ATPase activity. Anal Biochem, 157, 375-380, 1986). […]

Row | IC50 [1] [nM] | inhibition of H+/K+-ATPase activity after washout (hog gastric H+/K+-ATPase; after washout, compared with non-treated group) | inhibition of H+/K+-ATPase activity before washout (hog gastric H+/K+-ATPase; before washout, test compound at the concentration at which it has 50% inhibition) [%] | Compound | ED50 [2] [mg/kg]
1 | 10 |  |  | C#CCn1c(C)c(C)c2cncc(OCc3ccc(F)cc3)c21.Cl [Example 2, 7-(4-fluorobenzyloxy)-2,3-dimethyl-1-(prop-2-ynyl)-1H-pyrrolo[3,2-c]pyridine hydrochloride] | 1.1
2 | 10 |  |  | Cc1c(C)n(Cc2ccccc2)c2c(OCc3ccc(F)cc3)cncc12.Cl [Example 12, 1-benzyl-7-(4-fluorobenzyloxy)-2,3-dimethyl-1H-pyrrolo[3,2-c]pyridine hydrochloride] | 3.3
3 | 10 |  |  | CCCn1c(C)c(C)c2cncc(OCc3ccc(F)cc3)c21.Cl [Example 16, 7-(4-fluorobenzyloxy)-2,3-dimethyl-1-propyl-1H-pyrrolo[3,2-c]pyridine hydrochloride] | 1.8
4 | 10 |  |  | COCCn1c(C)c(C)c2cncc(OCc3ccc(F)cc3)c21.Cl [Example 17, 7-(4-fluorobenzyloxy)-1-(2-methoxyethyl)-2,3-dimethyl-1H-pyrrolo[3,2-c]pyridine hydrochloride] | 3.3
5 | 190 | did not inhibit | 50 | CCCn1c(C)c(C)c2cncc(N3CCc4ccccc4C3)c21.Cl [Example 38, 2-(2,3-dimethyl-1-propyl-1H-pyrrolo[3,2-c]pyridin-7-yl)-1,2,3,4-tetrahydroisoquinoline hydrochloride] | 
